Measured values: ChEMBL document CHEMBL1137267, “Novel aminobenzimidazoles as selective MCH-R1 antagonists for the treatment of metabolic diseases” (Bioorg Med Chem Lett, 2006)
Calls of active or inactive are those of the source. No cut-off for these calls is given here.

Key:
[1] = target: T1, Melanin-concentrating hormone receptor 1 (Homo sapiens, UniProt Q99705); test: Binding activity against human MCH-R1
[2] = target: Melanin-concentrating hormone receptor 2 (Homo sapiens) (UniProt Q969V1); test: Binding activity against human MCH-R2
[3] = tested on: Mus musculus; test: Inhibition of ex vivo MCH-ADO binding in mice 24 hours after 30 mg/kg peroral dose; format: functional; conditions: route oral
[4] = AUC in rats following 10 mg/kg peroral dose; format: ADME, organism-based; parameters: dose 10 mg/kg, route oral; conditions: rat, plasma, po
[5] = tested on: Mus musculus; test: Inhibition of ex vivo MCH-ADO binding in mice 6 hours after 30mg/kg peroral dose; format: functional; conditions: po
[6] = species: Mus musculus; test: Inhibition of cumulative food intake by fasted DIO mice at 24 hours; format: functional
[7] = species: Mus musculus; test: Inhibition of cumulative food intake by fasted DIO mice at 2 hours; format: functional
[8] = species: Mus musculus; test: Inhibition of cumulative food intake by fasted DIO mice at 4 hours; format: functional
[9] = species: Mus musculus; test: Inhibition of cumulative food intake by fasted DIO mice at 6 hours; format: functional
[10] = target: T1, Melanin-concentrating hormone receptor 1; test: Inhibition of MCH-mediated calcium influx into CHO cells expressing human MCH-R1by FLIPR assay; format: functional, cell-based

T1 sequence (Q99705 whole entry): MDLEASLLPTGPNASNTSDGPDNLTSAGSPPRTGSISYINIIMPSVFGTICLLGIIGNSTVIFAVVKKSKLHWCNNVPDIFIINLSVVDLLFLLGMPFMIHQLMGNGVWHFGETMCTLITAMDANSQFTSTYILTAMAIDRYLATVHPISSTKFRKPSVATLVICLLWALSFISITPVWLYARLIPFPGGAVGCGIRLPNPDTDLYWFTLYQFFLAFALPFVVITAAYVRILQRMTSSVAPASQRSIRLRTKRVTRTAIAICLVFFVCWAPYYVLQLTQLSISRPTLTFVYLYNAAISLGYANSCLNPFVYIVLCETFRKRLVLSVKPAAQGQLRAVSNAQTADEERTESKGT
Melanin-concentrating hormone receptor 2 (Homo sapiens), sequence (Q969V1 whole entry): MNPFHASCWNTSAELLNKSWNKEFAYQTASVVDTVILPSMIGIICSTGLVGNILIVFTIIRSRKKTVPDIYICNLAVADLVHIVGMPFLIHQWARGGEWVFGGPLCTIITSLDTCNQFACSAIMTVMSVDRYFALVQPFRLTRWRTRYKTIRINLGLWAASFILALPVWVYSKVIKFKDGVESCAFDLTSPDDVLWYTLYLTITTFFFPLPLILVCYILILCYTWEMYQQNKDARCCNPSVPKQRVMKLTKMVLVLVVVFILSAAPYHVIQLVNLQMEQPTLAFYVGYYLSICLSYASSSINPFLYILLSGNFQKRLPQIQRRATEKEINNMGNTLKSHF

Ki [1] [nM] | inhibition [2] | SMILES | inhibition in vivo at 30 mg/kg [3] [%] | inhibition in vivo at 30 mg/kg [5] [%] | also measured
28.2 | inactive | CO/N=C/c1cccc([C@]23CC[C@@H](N(CCCN4CCN(C)CC4)c4nc5cc(F)c(F)cc5[nH]4)C[C@H]2C3)c1 | – | – | –
441 | inactive | CN1CCN(CCCN(c2nc3cc(F)c(F)cc3[nH]2)[C@@H]2CC[C@]3(c4cccc(CN5CC[C@H](O)C5)c4)C[C@@H]3C2)CC1 | – | – | –
20.7 | inactive | CN1CCN(CCCN(c2nc3cc(F)c(F)cc3[nH]2)[C@@H]2CC[C@]3(c4cccc(C#N)c4)C[C@H]23)CC1 | 33 | 75 | AUC [4]: 1490 ng·h/mL
5.6 | – | CN1CCN(CCCN(c2nc3cc(Cl)c(F)cc3[nH]2)[C@@H]2CC[C@]3(c4cccc(C#N)c4)C[C@H]23)CC1 | – | – | AUC [4]: 1920 ng·h/mL
– | inactive | CN1CCN(CCCN(c2nc3cc(F)c(Cl)cc3[nH]2)[C@@H]2CC[C@]3(c4cccc(C#N)c4)C[C@H]23)CC1 | 77 | 92 | Inhibition [6]: 5%; Inhibition [7]: 13%; Inhibition [8]: 19%; Inhibition [9]: 21%; Kb [10]: 10 nM
8.6 | – | CN1CCN(CCCN(c2nc3cc(F)c(C(F)(F)F)cc3[nH]2)[C@@H]2CC[C@]3(c4ccc(C#N)cc4)C[C@H]23)CC1 | 94 | 100 | AUC [4]: 2800 ng·h/mL; Kb [10]: 43 nM
4.9 | – | CN1CCN(CCCN(c2nc3cc(Cl)c(F)cc3[nH]2)[C@@H]2CC[C@]3(c4ccc(C#N)cc4)C[C@H]23)CC1 | – | – | –
– | inactive | CN1CCN(CCCN(c2nc3cc(F)c(Cl)cc3[nH]2)[C@@H]2CC[C@]3(c4ccc(C#N)cc4)C[C@H]23)CC1 | 81 | 100 | –
6.8 | inactive | CN1CCN(CCCN(c2nc3cc(Cl)c(Cl)cc3[nH]2)[C@@H]2CC[C@]3(c4cccc(C#N)c4)C[C@H]23)CC1 | 51 | 97 | Kb [10]: 20 nM
11.4 | inactive | CN1CCN(CCCN(c2nc3cc(Cl)c(Cl)cc3[nH]2)[C@@H]2CC[C@]3(c4ccc(C#N)cc4)C[C@H]23)CC1 | – | – | –
– | inactive | CN1CCN(CCCN(c2nc3cc(F)c(F)cc3[nH]2)[C@@H]2CC[C@]3(c4cccc(CN5CCC[C@H]5CO)c4)C[C@@H]3C2)CC1 | – | – | –
16.3 | inactive | CN1CCN(CCCN(c2nc3cc(F)c(F)cc3[nH]2)[C@@H]2CCC3(c4cccc(C=O)c4)C[C@@H]3C2)CC1 (single isomer, unassigned) | – | – | –
– | inactive | CN1CCN(CCCN(c2nc3cc(Cl)c(Cl)cc3[nH]2)[C@@H]2CCC3(c4cccc(C#N)c4)C[C@@H]3C2)CC1 (single isomer, unassigned) | 97 | 81 | Inhibition [6]: 9%; Inhibition [7]: 12%; Inhibition [8]: 19%; Inhibition [9]: 18%; AUC [4]: 965 ng·h/mL
13.7 | inactive | CN1CCN(CCCN(c2nc3cc(Cl)c(Cl)cc3[nH]2)[C@@H]2CCC3(c4cccc(C=O)c4)C[C@@H]3C2)CC1 (single isomer, unassigned) | – | – | –
328 | inactive | CN(C)Cc1cccc(C23CC[C@@H](N(CCCN4CCN(C)CC4)c4nc5cc(F)c(F)cc5[nH]4)C[C@H]2C3)c1 (single isomer, unassigned) | – | – | –
– | inactive | CN1CCN(CCCN(c2nc3cc(F)c(F)cc3[nH]2)[C@@H]2CCC3(c4cccc(C#N)c4)C[C@@H]3C2)CC1 (single isomer, unassigned) | 17 | 37 | AUC [4]: 293 ng·h/mL
6.7 | inactive | CS(=O)(=O)N1CCC(CN(c2nc3cc(F)c(Cl)cc3[nH]2)[C@@H]2CCC3(c4cccc(C#N)c4)C[C@@H]3C2)CC1 (single isomer, unassigned) | – | – | –
27 | inactive | CS(=O)(=O)N1CCC(CN(c2nc3cc(F)c(F)cc3[nH]2)[C@@H]2CCC3(c4cccc(C#N)c4)C[C@@H]3C2)CC1 (single isomer, unassigned) | 0 | 0 | AUC [4]: 350 ng·h/mL
1.5 | inactive | CS(=O)(=O)N1CCC(CN(c2nc3cc(Cl)c(Cl)cc3[nH]2)[C@@H]2CCC3(c4cccc(C#N)c4)C[C@@H]3C2)CC1 (single isomer, unassigned) | 0 | 12 | –
21.3 | inactive | CN1CCN(CCCN(c2nc3cc(F)c(F)cc3[nH]2)[C@@H]2CCC3(c4cccc(CN5CCOCC5)c4)C[C@@H]3C2)CC1 (single isomer, unassigned) | – | – | –
6.2 | inactive | CN1CCN(CCCN(c2nc3cc(Cl)c(F)cc3[nH]2)[C@@H]2CCC3(c4cccc(C#N)c4)C[C@@H]3C2)CC1 (single isomer, unassigned) | – | – | –
4.9 | inactive | CN(C)Cc1cccc(C23CC[C@@H](N(CCCN4CCN(C)CC4)c4nc5cc(Cl)c(Cl)cc5[nH]4)C[C@H]2C3)c1 (single isomer, unassigned) | – | – | –
25.7 | inactive | CN1CCN(CCCN(c2nc3cc(F)c(F)cc3[nH]2)[C@@H]2CCC3(c4cccc(CN5CCCC5)c4)C[C@@H]3C2)CC1 (single isomer, unassigned) | – | – | –
14.2 | inactive | CN1CCN(CCCN(c2nc3cc(Cl)c(Cl)cc3[nH]2)[C@@H]2CCC3(c4cccc(CN5CCOCC5)c4)C[C@@H]3C2)CC1 (single isomer, unassigned) | – | – | –
1140 | inactive | CC(C)(C)OC(=O)N1CCC(CN(c2nc3cc(Cl)c(Cl)cc3[nH]2)[C@@H]2CCC3(c4cccc(C#N)c4)C[C@@H]3C2)CC1 (single isomer, unassigned) | – | – | –
– | inactive | CN1CCN(CCCN(c2nc3cc(F)c(F)cc3[nH]2)[C@@H]2CCC3(c4cccc(CN5CCCCC5)c4)C[C@@H]3C2)CC1 (single isomer, unassigned) | – | – | –
– | inactive | CN1CCN(CCCN(c2nc3cc(F)c(F)cc3[nH]2)[C@@H]2CCC3(c4cccc(CN5CCN(C)CC5)c4)C[C@@H]3C2)CC1 (single isomer, unassigned) | – | – | –
– | inactive | CN1CCN(CCCN(c2nc3cc(F)c(F)cc3[nH]2)[C@@H]2CCC3(c4cccc(CO)c4)C[C@@H]3C2)CC1 (single isomer, unassigned) | – | – | –
